ChEMBL document CHEMBL1201862, “PubChem BioAssay data set” (2004)
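Protocol summary: plate cells (96-well), add compound at 5 concentrations, incubate 48 h, interpolate endpoints linearly. GI50 = concentration required for 50% inhibition of growth.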 The source made the active and inactive calls. Rule as the data show it: active = GI50 up to about 1.1 µM and inactive = higher.

Assays:
Experiment in all cases: growth of human tumour cells (NCI), 48 h
786-0 = tested on: 786-0
A498 = tested on: A498
A549 = tested on: A549
ACHN = tested on: ACHN
BT-549 = tested on: BT-549
CAKI-1 = tested on: CAKI-1
CCRF-CEM = tested on: CCRF-CEM
COLO 205 = tested on: COLO 205
DU-145 = tested on: DU-145
EKVX = tested on: EKVX
HCC 2998 = tested on: HCC 2998
HCT-116 = tested on: HCT-116
HCT-15 = tested on: HCT-15
HL-60 = tested on: HL-60
HOP-62 = tested on: HOP-62
HOP-92 = tested on: HOP-92
HT-29 = tested on: HT-29
Hs-578T = tested on: Hs-578T
IGROV-1 = tested on: IGROV-1
K562 = tested on: K562
KM12 = tested on: KM12
LOX IMVI = tested on: LOX IMVI
M14 = tested on: M14
MCF7 = tested on: MCF7
MDA-MB-231 = tested on: MDA-MB-231
MDA-MB-435 = tested on: MDA-MB-435
MDA-N = tested on: MDA-N
MOLT-4 = tested on: MOLT-4
Malme-3M = tested on: Malme-3M
NCI-H226 = tested on: NCI-H226
NCI-H23 = tested on: NCI-H23
NCI-H460 = tested on: NCI-H460
NCI-H522 = tested on: NCI-H522
NCI/ADR-RES = tested on: NCI/ADR-RES
OVCAR-3 = tested on: OVCAR-3
OVCAR-4 = tested on: OVCAR-4
OVCAR-5 = tested on: OVCAR-5
OVCAR-8 = tested on: OVCAR-8
PC-3 = tested on: PC-3
RPMI-8226 = tested on: RPMI-8226
RXF 393 = tested on: RXF 393
SF-268 = tested on: SF-268
SF-295 = tested on: SF-295
SF-539 = tested on: SF-539
SK-MEL-28 = tested on: SK-MEL-28
SK-MEL-2 = tested on: SK-MEL-2
SK-MEL-5 = tested on: SK-MEL-5
SK-OV-3 = tested on: SK-OV-3
SN12C = tested on: SN12C
SNB-19 = tested on: SNB-19
SW-620 = tested on: SW-620
T47D = tested on: T47D
TK-10 = tested on: TK-10
U-251 = tested on: U-251
UACC-257 = tested on: UACC-257
UACC-62 = tested on: UACC-62
UO-31 = tested on: UO-31
SNB-75 = tested on: SNB-75
SR = tested on: SR

## COc1ccc(/C=C2\Sc3nnc(C)n3N=C2c2cc(F)c(Cl)cc2Cl)cc1OC
786-0
  GI50: 2.97 µM (inactive)
A498
  GI50: 19.3 µM (inactive)
A549
  GI50: 21.2 µM (inactive)
ACHN
  GI50: 12.6 µM (inactive)
BT-549
  GI50: 17.8 µM (inactive)
CAKI-1
  GI50: 8.13 µM (inactive)
CCRF-CEM
  GI50: 4.18 µM (inactive)
COLO 205
  GI50: 22.3 µM (inactive)
DU-145
  GI50: 14.7 µM (inactive)
EKVX
  GI50: 10.8 µM (inactive)
HCC 2998
  GI50: 17.6 µM (inactive)
HCT-116
  GI50: 5.98 µM (inactive)
HCT-15
  GI50: 6.93 µM
HL-60
  GI50: 8.95 µM (inactive)
HOP-62
  GI50: 17 µM (inactive)
HOP-92
  GI50: 13.8 µM (inactive)
HT-29
  GI50: 13.2 µM (inactive)
Hs-578T
  GI50: 41.9 µM (inactive)
IGROV-1
  GI50: 16 µM (inactive)
K562
  GI50: 3.09 µM (inactive)
KM12
  GI50: 15.2 µM (inactive)
LOX IMVI
  GI50: 13.8 µM (inactive)
M14
  GI50: 13.6 µM (inactive)
MCF7
  GI50: 5.87 µM (inactive)
MDA-MB-231
  GI50: 26.4 µM (inactive)
MDA-MB-435
  GI50: 10.4 µM (inactive)
MDA-N
  GI50: 5.32 µM (inactive)
MOLT-4
  GI50: 3.35 µM (inactive)
Malme-3M
  GI50: 18.3 µM (inactive)
NCI-H226
  GI50: 23.2 µM (inactive)
NCI-H23
  GI50: 12.4 µM (inactive)
NCI-H460
  GI50: 20.8 µM (inactive)
NCI-H522
  GI50: 11.3 µM (inactive)
NCI/ADR-RES
  GI50: 14.6 µM (inactive)
OVCAR-3
  GI50: 4.52 µM (inactive)
OVCAR-4
  GI50: 13.2 µM (inactive)
OVCAR-5
  GI50: 15.6 µM (inactive)
OVCAR-8
  GI50: 15.5 µM (inactive)
PC-3
  GI50: 18.7 µM (inactive)
RPMI-8226
  GI50: 2.58 µM (inactive)
RXF 393
  GI50: 15.9 µM (inactive)
SF-268
  GI50: 22.4 µM (inactive)
SF-295
  GI50: 22.1 µM (inactive)
SF-539
  GI50: 17 µM (inactive)
SK-MEL-28
  GI50: 23.3 µM (inactive)
SK-MEL-2
  GI50: 15.9 µM (inactive)
SK-MEL-5
  GI50: 18.8 µM (inactive)
SK-OV-3
  GI50: 30.1 µM (inactive)
SN12C
  GI50: 17.5 µM (inactive)
SNB-19
  GI50: 1.19 µM (inactive)
SW-620
  GI50: 5.33 µM (inactive)
T47D
  GI50: 24.8 µM (inactive)
TK-10
  GI50: 17.9 µM (inactive)
U-251
  GI50: 15.8 µM (inactive)
UACC-257
  GI50: 17 µM (inactive)
UACC-62
  GI50: 16.7 µM (inactive)
UO-31
  GI50: 10.4 µM (inactive)

## CN1CCN(C(=S)N(C(=O)c2ccco2)C2CCCCC2)CC1
786-0
  GI50: > 100 µM (inactive)
A549
  GI50: > 100 µM (inactive)
ACHN
  GI50: > 100 µM (inactive)
BT-549
  GI50: > 100 µM (inactive)
CCRF-CEM
  GI50: > 100 µM (inactive)
COLO 205
  GI50: > 100 µM (inactive)
DU-145
  GI50: > 100 µM (inactive)
HCC 2998
  GI50: > 100 µM (inactive)
HCT-15
  GI50: > 100 µM
HL-60
  GI50: > 10 µM (inactive)
HOP-92
  GI50: > 100 µM (inactive)
HT-29
  GI50: > 100 µM (inactive)
Hs-578T
  GI50: > 100 µM (inactive)
IGROV-1
  GI50: > 100 µM (inactive)
K562
  GI50: > 100 µM (inactive)
KM12
  GI50: > 100 µM (inactive)
LOX IMVI
  GI50: > 100 µM (inactive)
M14
  GI50: > 100 µM (inactive)
MCF7
  GI50: > 100 µM (inactive)
MDA-MB-231
  GI50: > 100 µM (inactive)
MDA-MB-435
  GI50: > 100 µM (inactive)
MDA-N
  GI50: > 100 µM (inactive)
MOLT-4
  GI50: > 10 µM (inactive)
Malme-3M
  GI50: > 100 µM (inactive)
NCI-H226
  GI50: > 100 µM (inactive)
NCI-H23
  GI50: > 100 µM (inactive)
NCI-H460
  GI50: > 100 µM (inactive)
NCI-H522
  GI50: > 100 µM (inactive)
OVCAR-3
  GI50: > 100 µM (inactive)
OVCAR-4
  GI50: > 100 µM (inactive)
OVCAR-5
  GI50: > 100 µM (inactive)
OVCAR-8
  GI50: > 100 µM (inactive)
RPMI-8226
  GI50: > 100 µM (inactive)
RXF 393
  GI50: > 100 µM (inactive)
SF-268
  GI50: > 100 µM (inactive)
SF-295
  GI50: > 100 µM (inactive)
SK-MEL-28
  GI50: > 100 µM (inactive)
SK-MEL-2
  GI50: > 100 µM (inactive)
SK-MEL-5
  GI50: > 100 µM (inactive)
SN12C
  GI50: > 100 µM (inactive)
SNB-19
  GI50: > 100 µM (inactive)
SNB-75
  GI50: 50.7 µM (inactive)
SR
  GI50: > 100 µM (inactive)
SW-620
  GI50: > 100 µM (inactive)
T47D
  GI50: > 100 µM (inactive)
TK-10
  GI50: > 100 µM (inactive)
U-251
  GI50: > 100 µM (inactive)
UACC-257
  GI50: > 100 µM (inactive)
UACC-62
  GI50: > 100 µM (inactive)
UO-31
  GI50: > 100 µM (inactive)

## CCOC(=O)CO/N=C1/C(=C2/C(=O)Nc3ccccc32)Nc2ccccc21
786-0
  GI50: 7.5 µM (inactive)
A498
  GI50: 15.1 µM (inactive)
A549
  GI50: 24.5 µM (inactive)
ACHN
  GI50: 67 µM (inactive)
BT-549
  GI50: 78.3 µM (inactive)
CAKI-1
  GI50: 20.1 µM (inactive)
CCRF-CEM
  GI50: > 100 µM (inactive)
COLO 205
  GI50: > 100 µM (inactive)
DU-145
  GI50: > 100 µM (inactive)
EKVX
  GI50: 13.4 µM (inactive)
HCC 2998
  GI50: > 100 µM (inactive)
HCT-116
  GI50: 5.12 µM (inactive)
HCT-15
  GI50: 81.7 µM
HL-60
  GI50: > 100 µM (inactive)
HOP-62
  GI50: 8.3 µM (inactive)
HOP-92
  GI50: 16.9 µM (inactive)
HT-29
  GI50: > 100 µM (inactive)
Hs-578T
  GI50: 36.2 µM (inactive)
IGROV-1
  GI50: 2.58 µM (inactive)
K562
  GI50: > 100 µM (inactive)
KM12
  GI50: 0.0955 µM (active)
LOX IMVI
  GI50: > 100 µM (inactive)
M14
  GI50: > 100 µM (inactive)
MCF7
  GI50: 50.1 µM (inactive)
MDA-MB-231
  GI50: 7.4 µM (inactive)
MDA-MB-435
  GI50: > 100 µM (inactive)
MDA-N
  GI50: > 100 µM (inactive)
MOLT-4
  GI50: 22 µM (inactive)
Malme-3M
  GI50: > 100 µM (inactive)
NCI-H23
  GI50: 17 µM (inactive)
NCI-H460
  GI50: > 100 µM (inactive)
NCI-H522
  GI50: > 100 µM (inactive)
NCI/ADR-RES
  GI50: > 100 µM (inactive)
OVCAR-3
  GI50: 12.4 µM (inactive)
OVCAR-4
  GI50: 3.24 µM (inactive)
OVCAR-5
  GI50: > 100 µM (inactive)
OVCAR-8
  GI50: 6.21 µM (inactive)
PC-3
  GI50: 78.7 µM (inactive)
RPMI-8226
  GI50: > 100 µM (inactive)
RXF 393
  GI50: 7.82 µM (inactive)
SF-268
  GI50: 27 µM (inactive)
SF-295
  GI50: 33.3 µM (inactive)
SF-539
  GI50: 41.1 µM (inactive)
SK-MEL-28
  GI50: > 100 µM (inactive)
SK-MEL-2
  GI50: 39.6 µM (inactive)
SK-MEL-5
  GI50: 49.5 µM (inactive)
SK-OV-3
  GI50: 13.6 µM (inactive)
SN12C
  GI50: 31.3 µM (inactive)
SNB-19
  GI50: 10 µM (inactive)
SNB-75
  GI50: 3.39 µM (inactive)
SW-620
  GI50: 34.7 µM (inactive)
T47D
  GI50: 2.29 µM (inactive)
TK-10
  GI50: 86.3 µM (inactive)
U-251
  GI50: 6.78 µM (inactive)
UACC-257
  GI50: > 100 µM (inactive)
UACC-62
  GI50: 48.6 µM (inactive)
UO-31
  GI50: 86.7 µM (inactive)
